The assay concerns the target BRAF V600E (Homo sapiens, UniProt P15056, V600E). Put plainly: HiBiT cellular BRAF^V600E degradation assay. Format: cell-based. The note with it: for DC50: concentration at which 50% of total cellular BRAF^V600E is degraded; for Emax: read-out: HiBit 24 h Emax.
Where [1] appears, read: A375.10 cells, 24 h, residual protein remaining in the cell.

Read-outs that look alike come from different tables or passages of the source.

Consider twelve molecules from US12486253B2, “Therapeutics for the degradation of mutant BRAF” (C4 THERAPEUTICS, INC., priority 2021, dated 2025).

Chain of BRAF V600E (P15056 whole entry V600E): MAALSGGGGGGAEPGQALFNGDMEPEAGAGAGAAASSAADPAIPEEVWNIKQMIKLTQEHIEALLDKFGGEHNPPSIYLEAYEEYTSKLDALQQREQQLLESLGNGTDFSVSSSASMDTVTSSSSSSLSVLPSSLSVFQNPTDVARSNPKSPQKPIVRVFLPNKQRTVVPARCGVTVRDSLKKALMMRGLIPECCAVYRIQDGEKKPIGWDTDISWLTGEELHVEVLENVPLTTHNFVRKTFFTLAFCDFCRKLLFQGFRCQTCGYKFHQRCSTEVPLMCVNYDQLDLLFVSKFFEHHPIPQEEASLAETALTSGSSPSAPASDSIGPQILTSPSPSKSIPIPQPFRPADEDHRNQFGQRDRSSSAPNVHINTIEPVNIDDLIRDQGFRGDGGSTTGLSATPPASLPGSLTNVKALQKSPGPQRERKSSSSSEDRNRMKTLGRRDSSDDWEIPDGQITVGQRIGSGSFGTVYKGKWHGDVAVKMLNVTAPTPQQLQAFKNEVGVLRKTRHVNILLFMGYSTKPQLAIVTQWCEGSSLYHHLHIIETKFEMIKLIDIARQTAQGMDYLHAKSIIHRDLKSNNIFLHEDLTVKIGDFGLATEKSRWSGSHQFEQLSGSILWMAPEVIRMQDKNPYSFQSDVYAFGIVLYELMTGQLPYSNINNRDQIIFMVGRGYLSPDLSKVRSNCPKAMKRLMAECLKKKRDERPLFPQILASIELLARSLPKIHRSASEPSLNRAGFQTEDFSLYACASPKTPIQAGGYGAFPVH

Turning to `CCN(C)S(=O)(=O)Nc1ccc(F)c(Oc2ccc3ncn(-c4cnc(N5CCN(C(=O)CN6CCC(c7ccc(N[C@@H]8CCC(=O)NC8=O)cc7F)CC6)CC5)nc4)c(=O)c3c2COC)c1C#N` [Example 135, 6-[2-cyano-3-[[ethyl(methyl)sulfamoyl]amino]-6-fluorophenoxy]-3-[2-[4-[2-[4-[4-[[(3R)-2,6-dioxopiperidin-3-yl]amino]-2-fluorophenyl]piperidin-1-yl]acetyl]piperazin-1-yl]pyrimidin-5-yl]-5-(methoxymethyl)-4-oxoquinazoline], it took 31.4 nM to reach half-maximal degradation (A375.10 cells, 24 h) (DC50). Moreover, the Emax under setting [1] stood at 13.7%.

`CCN(C)S(=O)(=O)Nc1ccc(F)c(Oc2ccc3ncn([C@H]4COC5(CCN(C(=O)CC6(O)CCN(c7ccc8c(N9CCC(=O)NC9=O)nn(C)c8c7F)CC6)CC5)C4)c(=O)c3c2)c1C#N` [Example 173, (3R)-3-[6-[2-cyano-3-[[ethyl(methyl)sulfamoyl]amino]-6-fluorophenoxy]-4-oxoquinazolin-3-yl]-8-[2-[1-[3-(2,4-dioxo-1,3-diazinan-1-yl)-7-fluoro-1-methylindazol-6-yl]-4-hydroxypiperidin-4-yl]acetyl]-1-oxa-8-azaspiro[4.5]decane] registered a DC50 (A375.10 cells, 24 h) of 192 nM. Further, the maximal effect (Emax) under setting [1] was determined as 46%.

Where the note is “A375.10 cells, 24 h”, `CO[C@H]1CCN(S(=O)(=O)Nc2ccc(F)c(Oc3ccc4ncn(-c5cnc(N6CCN(C(=O)CN7CCC(c8ccc(N[C@@H]9CCC(=O)NC9=O)cc8F)CC7)CC6)nc5)c(=O)c4c3)c2C#N)C1` [Example 110, (3S)—N-[2-cyano-3-[3-[2-[4-[2-[4-[4-[[(3R)-2,6-dioxopiperidin-3-yl]amino]-2-fluorophenyl]piperidin-1-yl]acetyl]piperazin-1-yl]pyrimidin-5-yl]-4-oxoquinazolin-6-yl]oxy-4-fluorophenyl]-3-methoxypyrrolidine-1-sulfonamide] displayed a DC50 of 42.5 nM. Further, the Emax under setting [1] was found to be 8.22%.

Where the note is “A375.10 cells, 24 h”, `CCN(C)S(=O)(=O)Nc1ccc(F)c(Oc2ccc3ncn(CCCC4CCN(C(=O)CN5CCC(c6ccc(C7CCC(=O)NC7=O)cc6F)CC5)CC4)c(=O)c3c2)c1C#N` (stereo not drawn) [Example 5, 6-[2-cyano-3-[[ethyl(methyl)sulfamoyl]amino]-6-fluorophenoxy]-3-[3-[1-[2-[4-[4-(2,6-dioxopiperidin-3-yl)-2-fluorophenyl]piperidin-1-yl]acetyl]piperidin-4-yl]propyl]-4-oxoquinazoline] returned a half-maximal degradation concentration (DC50) of 49.3 nM. Besides, the maximum response (Emax) under setting [1] was determined as 13.1%.

Under “A375.10 cells, 24 h”, `CCN(C)S(=O)(=O)Nc1ccc(F)c(Oc2ccc3ncn([C@H]4COC5(CCN(C(=O)CN6CCC(c7ccc(NC8CCC(=O)NC8=O)cc7F)C(F)(F)C6)CC5)C4)c(=O)c3c2)c1C#N` (stereo partly drawn) [Example 58, (3R)-3-[6-[2-cyano-3-[[ethyl(methyl)sulfamoyl]amino]-6-fluorophenoxy]-4-oxoquinazolin-3-yl]-8-[2-[4-[4-[(2,6-dioxopiperidin-3-yl)amino]-2-fluorophenyl]-3,3-difluoropiperidin-1-yl]acetyl]-1-oxa-8-azaspiro[4.5]decane] registered a DC50 of 45.3 nM. Further, under setting [1], the maximal effect (Emax) stood at 13.9%.

Under “A375.10 cells, 24 h”, `CCN(C)S(=O)(=O)Nc1ccc(F)c(Oc2ccc3ncn(C4COC5(CCN(C(=O)CC6(O)CCN(c7ccc(NC8CCC(=O)NC8=O)cc7F)CC6)CC5)C4)c(=O)c3c2)c1C#N` (stereo not drawn) [Example 27, 3-[6-[2-cyano-3-[[ethyl(methyl)sulfamoyl]amino]-6-fluorophenoxy]-4-oxoquinazolin-3-yl]-8-[2-[1-[4-[(2,6-dioxopiperidin-3-yl)amino]-2-fluorophenyl]-4-hydroxypiperidin-4-yl]acetyl]-1-oxa-8-azaspiro[4.5]decane] yielded a DC50 of 15 nM. In addition, under setting [1], the Emax worked out at 22.2%.

`CCN(C)S(=O)(=O)Nc1ccc(F)c(Oc2ccc3ncn(C4COC5(CCN(C(=O)CN6CCC(c7ccc(NC8CCC(=O)NC8=O)cc7F)CC6)CC5)C4)c(=O)c3c2N)c1C#N` (stereo not drawn) [Example 81, 3-[5-amino-6-[2-cyano-3-[[ethyl(methyl)sulfamoyl]amino]-6-fluorophenoxy]-4-oxoquinazolin-3-yl]-8-[2-[4-[4-[(2,6-dioxopiperidin-3-yl)amino]-2-fluorophenyl]piperidin-1-yl]acetyl]-1-oxa-8-azaspiro[4.5]decane]: for the setting “A375.10 cells, 24 h”, the DC50 was found to be 25.4 nM. In addition, the maximal effect (Emax) under setting [1] was 12.2%.

For `CCN(C)S(=O)(=O)Nc1ccc(F)c(Oc2ccc3ncn([C@H]4[C@@H]5CN(c6ccc(C(=O)NC7CCN(c8ccc(NC9CCC(=O)NC9=O)cc8F)CC7)cc6)C[C@@H]54)c(=O)c3c2)c1C#N` (stereo partly drawn) [Example 35, 4-[6-[6-[2-cyano-3-[[ethyl(methyl)sulfamoyl]amino]-6-fluorophenoxy]-4-oxoquinazolin-3-yl]-3-azabicyclo[3.1.0]hexan-3-yl]-N-[1-[4-[(2,6-dioxopiperidin-3-yl)amino]-2-fluorophenyl]piperidin-4-yl]benzamide], the DC50 (A375.10 cells, 24 h) was 6.82 nM. Moreover, the Emax under setting [1] stood at 13.6%.

The molecule `CCN(C)S(=O)(=O)Nc1ccc(F)c(Oc2ccc3ncn([C@@H]4CCC5(CCN(C(=O)CN6CCC(c7ccc(N[C@H]8CCC(=O)NC8=O)cc7F)CC6)CC5)C4)c(=O)c3c2)c1C#N` [Example 45, 6-[2-cyano-3-[[ethyl(methyl)sulfamoyl]amino]-6-fluorophenoxy]-3-[(3R)-8-[2-[4-[4-[[(3S)-2,6-dioxopiperidin-3-yl]amino]-2-fluorophenyl]piperidin-1-yl]acetyl]-8-azaspiro[4.5]decan-3-yl]-4-oxoquinazoline] displayed a DC50 (A375.10 cells, 24 h) of 18.7 nM. Moreover, the Emax under setting [1] came out at 11.3%.

As for `CCN(C)S(=O)(=O)Nc1ccc(F)c(Oc2ccc3ncn(-c4cnn(C5CCN(C(=O)CN6CCC(c7ccc(C8CCC(=O)NC8=O)cc7F)CC6)CC5)c4)c(=O)c3c2)c1C#N` (stereo not drawn) [Example 17, 6-[2-cyano-3-[[ethyl(methyl)sulfamoyl]amino]-6-fluorophenoxy]-3-[1-[1-[2-[4-[4-(2,6-dioxopiperidin-3-yl)-2-fluorophenyl]piperidin-1-yl]acetyl]piperidin-4-yl]pyrazol-4-yl]-4-oxoquinazoline], the half-maximal degradation concentration (DC50) (A375.10 cells, 24 h) came to 44 nM. In addition, the Emax under setting [1] was 20.7%.

Turning to `CCN(C)S(=O)(=O)Nc1ccc(F)c(Oc2ccc3ncn(C4CCC5(CCN(C(=O)CN6CCC(c7ccc(NC8CCC(=O)NC8=O)cc7F)CC6)CC5)C4)c(=O)c3c2Br)c1C#N` (stereo not drawn) [Example 69, 5-bromo-6-[2-cyano-3-[[ethyl(methyl)sulfamoyl]amino]-6-fluorophenoxy]-3-[8-[2-[4-[4-[(2,6-dioxopiperidin-3-yl)amino]-2-fluorophenyl]piperidin-1-yl]acetyl]-8-azaspiro[4.5]decan-3-yl]-4-oxoquinazoline], the half-maximal degradation concentration (DC50) (A375.10 cells, 24 h) came to 6.63 nM. In addition, the Emax under setting [1] was found to be 9.52%.

For the molecule `CCN(C)S(=O)(=O)Nc1ccc(F)c(Oc2ccc3ncn(-c4ccc(N5CCN(C(=O)CN6CCC(c7cc(OC)c(NC8CCC(=O)NC8=O)cc7F)CC6)CC5)nc4)c(=O)c3c2)c1C#N` (stereo not drawn) [Example 90, 6-[2-cyano-3-[[ethyl(methyl)sulfamoyl]amino]-6-fluorophenoxy]-3-[6-[4-[2-[4-[4-[(2,6-dioxopiperidin-3-yl)amino]-2-fluoro-5-methoxyphenyl]piperidin-1-yl]acetyl]piperazin-1-yl]pyridin-3-yl]-4-oxoquinazoline], the maximal effect (Emax) amounted to 10.7%. The 50% degradation concentration (DC50) (A375.10 cells, 24 h) was determined as 23.5 nM.
